# Data: ChEMBL document CHEMBL1154899, “Synthesis and biological evaluation of caffeic acid 3,4-dihydroxyphenethyl ester” (J Nat Prod, 2010)
# Columns and labels:
# Type in all cases: functional
# [1] = tested on: T47D; assay: Antiproliferative activity against human T47D cells assessed as cell growth at 0.5 uM by SRB assay; settings: read-out: Activity
# [2] = tested on: UO-31; assay: Antiproliferative activity against human UO31 cells assessed as cell growth at 0.5 uM by SRB assay; settings: read-out: Activity
# [3] = tested on: OVCAR-5; assay: Antiproliferative activity against human OVCAR5 cells by SRB assay
# [4] = tested on: HOP-92; assay: Antiproliferative activity against human HOP92 cells assessed as cell growth at 500 uM by SRB assay; settings: read-out: Activity
# [5] = tested on: MDA-MB-231; assay: Antiproliferative activity against human MDA-MB-231 cells assessed as cell growth at 5 uM by SRB assay; settings: read-out: Activity
# [6] = Antiproliferative activity against human Hs 578T cells assessed as cell growth at 0.5 uM by SRB assay; settings: read-out: Activity
# [7] = tested on: HOP-92; assay: Antiproliferative activity against human HOP92 cells assessed as cell growth at 0.5 uM by SRB assay; settings: read-out: Activity
# [8] = tested on: SNB-19; assay: Antiproliferative activity against human SNB19 cells assessed as cell growth at 5 uM by SRB assay; settings: read-out: Activity
# [9] = tested on: SW-620; assay: Antiproliferative activity against human SW620 cells assessed as cell growth at 500 uM by SRB assay; settings: read-out: Activity
# [10] = tested on: SNB-75; assay: Antiproliferative activity against human SNB75 cells assessed as cell growth at 5 uM by SRB assay; settings: read-out: Activity
# [11] = tested on: KM12; assay: Antiproliferative activity against human KM12 cells by SRB assay
# [12] = tested on: OVCAR-8; assay: Antiproliferative activity against human OVCAR8 cells by SRB assay
# [13] = tested on: COLO 205; assay: Antiproliferative activity against human COLO205 cells assessed as cell growth at 50 uM by SRB assay; settings: read-out: Activity
# [14] = tested on: SK-MEL-2; assay: Antiproliferative activity against human SK-MEL-2 cells assessed as cell growth at 5 uM by SRB assay; settings: read-out: Activity
# [15] = tested on: K562; assay: Antiproliferative activity against human K562 cells assessed as cell growth at […] by SRB assay; settings: read-out: Activity
# [16] = tested on: TK-10; assay: Antiproliferative activity against human TK10 cells assessed as cell growth at 50 uM by SRB assay; settings: read-out: Activity
# [17] = tested on: HCT-116; assay: Antiproliferative activity against human HCT116 cells assessed as cell growth at 500 uM by SRB assay; settings: read-out: Activity
# [18] = tested on: NCI/ADR-RES; assay: Antiproliferative activity against human NCI/ADR-RES cells by SRB assay
# [19] = tested on: NCI-H226; assay: Antiproliferative activity against human NCI-H226 cells assessed as cell growth at 0.5 uM by SRB assay; settings: read-out: Activity
# [20] = Antiproliferative activity against human Hs 578T cells by SRB assay
# [21] = tested on: NCI-H460; assay: Antiproliferative activity against human NCI-H460 cells by SRB assay
# [22] = tested on: MDA-MB-231; assay: Antiproliferative activity against human MDA-MB-231 cells assessed as cell growth at 50 uM by SRB assay; settings: read-out: Activity
# [23] = tested on: K562; assay: Antiproliferative activity against human K562 cells assessed as cell growth at 50 uM by SRB assay; settings: read-out: Activity
# [24] = tested on: ACHN; assay: Antiproliferative activity against human ACHN cells assessed as cell growth at 500 uM by SRB assay; settings: read-out: Activity
# [25] = tested on: MOLT-4; assay: Antiproliferative activity against human MOLT4 cells assessed as cell growth at 5 uM by SRB assay; settings: read-out: Activity
# [26] = tested on: SR; assay: Antiproliferative activity against human SR cells by SRB assay
# [27] = tested on: OVCAR-4; assay: Antiproliferative activity against human OVCAR4 cells assessed as cell growth at 5 mM by SRB assay; settings: read-out: Activity
# [28] = tested on: Malme-3M; assay: Antiproliferative activity against human MALME-3M cells assessed as cell growth at 0.5 uM by SRB assay; settings: read-out: Activity
# [29] = tested on: HT-29; assay: Antiproliferative activity against human HT-29 cells assessed as cell growth at 500 uM by SRB assay; settings: read-out: Activity
# [30] = tested on: HCT-15; assay: Antiproliferative activity against human HCT15 cells assessed as cell growth at 0.5 uM by SRB assay; settings: read-out: Activity
# [31] = tested on: SK-OV-3; assay: Antiproliferative activity against human SKOV3 cells assessed as cell growth at 500 uM by SRB assay; settings: read-out: Activity
# [32] = tested on: NCI-H23; assay: Antiproliferative activity against human NCI-H23 cells by SRB assay
# [33] = tested on: RXF 393; assay: Antiproliferative activity against human RXF393 cells by SRB assay
# [34] = tested on: HOP-92; assay: Antiproliferative activity against human HOP92 cells assessed as cell growth at 5 uM by SRB assay; settings: read-out: Activity
# [35] = tested on: U-251; assay: Antiproliferative activity against human U251 cells by SRB assay
# [36] = tested on: HT-29; assay: Antiproliferative activity against human HT-29 cells assessed as cell growth at 50 uM by SRB assay; settings: read-out: Activity
# [37] = tested on: SF-268; assay: Antiproliferative activity against human SF268 cells assessed as cell growth at 500 uM by SRB assay; settings: read-out: Activity
# [38] = tested on: HCT-116; assay: Antiproliferative activity against human HCT116 cells assessed as cell growth at 0.5 uM by SRB assay; settings: read-out: Activity
# [39] = tested on: TK-10; assay: Antiproliferative activity against human TK10 cells assessed as cell growth at 5 uM by SRB assay; settings: read-out: Activity
# [40] = tested on: CCRF-CEM; assay: Antiproliferative activity against human CCRF-CEM cells assessed as cell growth at […] by SRB assay; settings: read-out: Activity
# [41] = read-out: LC50 (the source's name)
# [42] = read-out: pLC50 (the source's name) (converted)
smiles,measurement,setting,value
O=C(/C=C/c1ccc(O)c(O)c1)OCCc1ccc(O)c(O)c1,growth at 0.5 µM,[1],98%
same,growth at 0.5 µM,[2],98%
same,GI50,[3]; read-out: GI50,> 50 µM
same,CC50,[3]; [41],> 50 µM
same,TGI,[3]; read-out: TGI,> 50 µM
same,GI50,[3]; read-out: pGI50 (converted),> 50.1 µM
same,CC50,[3]; [42],> 50.1 µM
same,TGI,[3]; read-out: pTGI,> 50.1 µM
same,growth at 500 µM,[4],29%
same,growth at 5 µM,[5],108%
same,growth at 0.5 µM,[6],83%
same,growth at 0.5 µM,[7],70%
same,growth at 5 µM,[8],95%
same,growth at 500 µM,[9],64%
same,growth at 5 µM,[10],75%
same,GI50,[11]; read-out: GI50,7.92 µM
same,CC50,[11]; [41],> 50 µM
same,TGI,[11]; read-out: TGI,> 50 µM
same,GI50,[11]; read-out: pGI50 (converted),7.94 µM
same,CC50,[11]; [42],> 50.1 µM
same,TGI,[11]; read-out: pTGI,> 50.1 µM
same,GI50,[12]; read-out: GI50,9.32 µM
same,CC50,[12]; [41],> 50 µM
same,TGI,[12]; read-out: TGI,> 50 µM
same,GI50,[12]; read-out: pGI50 (converted),9.33 µM
same,CC50,[12]; [42],> 50.1 µM
same,TGI,[12]; read-out: pTGI,> 50.1 µM
same,growth at 50 µM,[13],89%
same,growth at 5 µM,[14],95%
same,growth,[15],-8%
same,growth at 50 µM,[16],94%
same,growth at 500 µM,[17],65%
same,GI50,[18]; read-out: GI50,10.9 µM
same,CC50,[18]; [41],> 50 µM
same,TGI,[18]; read-out: TGI,44.9 µM
same,GI50,[18]; read-out: pGI50 (converted),10.5 µM
same,CC50,[18]; [42],> 50.1 µM
same,TGI,[18]; read-out: pTGI (converted),44.7 µM
same,growth at 0.5 µM,[19],97%
same,GI50,[20]; read-out: GI50,9.75 µM
same,CC50,[20]; [41],> 50 µM
same,TGI,[20]; read-out: TGI,> 50 µM
same,GI50,[20]; read-out: pGI50 (converted),9.77 µM
same,CC50,[20]; [42],> 50.1 µM
same,TGI,[20]; read-out: pTGI,> 50.1 µM
same,GI50,[21],14.8 µM
same,CC50,[21]; [41],> 50 µM
same,TGI,[21]; read-out: TGI,> 50 µM
same,CC50,[21]; [42],> 50.1 µM
same,TGI,[21]; read-out: pTGI,> 50.1 µM
same,growth at 50 µM,[22],97%
same,growth at 50 µM,[23],90%
same,growth at 500 µM,[24],38%
same,growth at 5 µM,[25],97%
same,GI50,[26]; read-out: GI50,1.49 µM
same,CC50,[26]; [41],> 50 µM
same,TGI,[26]; read-out: TGI,12.7 µM
same,GI50,[26]; read-out: pGI50 (converted),1.48 µM
same,CC50,[26]; [42],> 50.1 µM
same,TGI,[26]; read-out: pTGI (converted),12.6 µM
same,growth at 5000 µM,[27],21%
same,growth at 0.5 µM,[28],91%
same,growth at 500 µM,[29],99%
same,growth at 0.5 µM,[30],80%
same,growth at 500 µM,[31],79%
same,GI50,[32]; read-out: GI50,11.6 µM
same,CC50,[32]; [41],> 50 µM
same,TGI,[32]; read-out: TGI,> 50 µM
same,GI50,[32]; read-out: pGI50 (converted),11.5 µM
same,CC50,[32]; [42],> 50.1 µM
same,TGI,[32]; read-out: pTGI,> 50.1 µM
same,GI50,[33]; read-out: GI50,15.5 µM
same,CC50,[33]; [41],> 50 µM
same,TGI,[33]; read-out: TGI,> 50 µM
same,GI50,[33]; read-out: pGI50 (converted),15.5 µM
same,CC50,[33]; [42],> 50.1 µM
same,TGI,[33]; read-out: pTGI,> 50.1 µM
same,growth at 5 µM,[34],60%
same,GI50,[35]; read-out: GI50,8.86 µM
same,CC50,[35]; [41],> 50 µM
same,TGI,[35]; read-out: TGI,> 50 µM
same,GI50,[35]; read-out: pGI50 (converted),8.71 µM
same,CC50,[35]; [42],> 50.1 µM
same,TGI,[35]; read-out: pTGI,> 50.1 µM
same,growth at 50 µM,[36],98%
same,growth at 500 µM,[37],57%
same,growth at 0.5 µM,[38],100%
same,growth at 5 µM,[39],95%
same,growth,[40],-44%
